Assay results published in patent US11530213B2, “Naphthyridinone derivatives and their use in the treatment of arrhythmia” (NOVARTIS AG, priority 2016, dated 2022).

Biological target: GIRK1/4 (Homo sapiens (Human), UniProt P48544+P48549)
Test: GIRK1/4 inhibition, Quattro (IonWorks) population patch clamp, inward potassium current in GIRK 1/4 HEK293 stable cells (test assay No. 1)
Assay type: cell-based
Conditions: percentage of current inhibition normalized to DMSO-only control
Outline: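 GIRK1/4-expressing HEK293 cells were recorded by IonWorks Quattro perforated patch (amphotericin B), with inward K+ current measured at 1200-1220 ms during a −120 to 40 mV ramp, before and after compound (50-0.1 µM or 0.5-0.01 µM final, quadruplicate). IC50 came from % current inhibition normalized to DMSO control.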

Chain of GIRK1/4 (P48549 whole entry): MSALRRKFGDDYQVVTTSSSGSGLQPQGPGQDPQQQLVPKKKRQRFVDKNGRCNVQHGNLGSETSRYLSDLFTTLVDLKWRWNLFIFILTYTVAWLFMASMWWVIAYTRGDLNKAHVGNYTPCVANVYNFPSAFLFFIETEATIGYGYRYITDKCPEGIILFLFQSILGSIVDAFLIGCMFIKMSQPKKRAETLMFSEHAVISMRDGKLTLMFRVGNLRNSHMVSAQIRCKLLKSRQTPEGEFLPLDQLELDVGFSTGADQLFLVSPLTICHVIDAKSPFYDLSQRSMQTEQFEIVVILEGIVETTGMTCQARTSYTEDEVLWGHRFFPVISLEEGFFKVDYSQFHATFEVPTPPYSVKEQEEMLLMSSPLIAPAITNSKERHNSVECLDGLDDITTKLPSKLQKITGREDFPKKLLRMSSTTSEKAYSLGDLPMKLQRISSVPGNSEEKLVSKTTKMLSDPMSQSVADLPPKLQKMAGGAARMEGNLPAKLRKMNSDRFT
Chain of GIRK1/4 (P48544 whole entry): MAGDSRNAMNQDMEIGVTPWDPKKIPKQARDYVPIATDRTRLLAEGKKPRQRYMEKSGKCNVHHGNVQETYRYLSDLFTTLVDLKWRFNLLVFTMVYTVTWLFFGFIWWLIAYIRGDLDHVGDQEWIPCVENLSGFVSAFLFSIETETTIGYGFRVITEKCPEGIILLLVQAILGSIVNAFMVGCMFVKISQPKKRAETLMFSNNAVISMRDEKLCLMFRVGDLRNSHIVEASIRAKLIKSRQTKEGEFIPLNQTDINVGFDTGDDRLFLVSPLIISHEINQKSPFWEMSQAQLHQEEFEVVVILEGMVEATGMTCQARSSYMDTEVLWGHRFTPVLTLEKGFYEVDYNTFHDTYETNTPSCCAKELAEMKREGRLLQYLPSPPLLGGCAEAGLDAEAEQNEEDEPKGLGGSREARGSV

| SMILES | IC50 [nM] |
| --- | --- |
| O=c1cc(CO)n(-c2c(Cl)cccc2Cl)c2c(Cl)cnc(O)c12 [Example 64, 8-Chloro-1-(2,6-dichlorophenyl)-5-hydroxy-2-(hydroxymethyl)-1,6-naphthyridin-4(1H)-one] | 970 |
| Cc1cc(=O)c2c(NCCO)cncc2n1-c1c(Cl)cc(C#N)cc1Cl [Example 27, 3,5-dichloro-4-(5-((2-hydroxyethyl)amino)-2-methyl-4-oxo-1,7-naphthyridin-1(4H)-yl)benzonitrile] | 150 |
| COCc1cc(=O)c2c(OCC(CO)CO)ncc(Cl)c2n1-c1c(Cl)cccc1Cl [Example 53, 8-chloro-1-(2,6-dichlorophenyl)-5-(3-hydroxy-2-(hydroxymethyl)propoxy)-2-(methoxymethyl)-1,6-naphthyridin-4(1H)-one] | 28 |
| Cc1cc(=O)c2c(OCCOCCOCCOCCOCCOCCO)ncc(Cl)c2n1-c1c(Cl)cc(F)cc1Cl [Example 24, 8-chloro-1-(2,6-dichloro-4-fluorophenyl)-5-((17-hydroxy-3,6,9,12,15-pentaoxaheptadecyl)oxy)-2-methyl-1,6-naphthyridin-4(1H)-one] | 253 |
| Cc1cc(=O)c2c(OCCO)ncc(Cl)c2n1-c1c(Cl)cc(C#CCN2CCS(=O)(=O)CC2)cc1Cl [Example 92, 8-Chloro-1-(2,6-dichloro-4-(3-(1,1-dioxidothiomorpholino)prop-1-yn-1-yl)phenyl)-5-(2-hydroxyethoxy)-2-methyl-1,6-naphthyridin-4(1H)-one] | 47 |
| Cc1cc(=O)c2c(OCCOCCOCCOCCOCCOCCO)ncc(Cl)c2n1-c1c(Cl)cccc1Cl [Example 19, 8-chloro-1-(2,6-dichlorophenyl)-5-((17-hydroxy-3,6,9,12,15-pentaoxaheptadecyl)oxy)-2-methyl-1,6-naphthyridin-4(1H)-one] | 98 |
| Cc1cc(=O)c2c(Oc3nnnn3C)ncc(Cl)c2n1-c1c(Cl)cccc1Cl [Example 46, 8-chloro-1-(2,6-dichlorophenyl)-2-methyl-5-((1-methyl-1H-tetrazol-5-yl)oxy)-1,6-naphthyridin-4(1H)-one] | 128 |
| Cc1cc(=O)c2c(NCC(O)C(=O)NCCO)ncc(Cl)c2n1-c1c(Cl)cccc1Cl (centres unmarked) [Example 17, 3-((8-chloro-1-(2,6-dichlorophenyl)-2-methyl-4-oxo-1,4-dihydro-1,6-naphthyridin-5-yl)amino)-2-hydroxy-N-(2-hydroxyethyl)propanamide] | 60 |
| O=c1cc(CO)n(-c2c(Cl)cccc2Cl)c2c(Cl)cnc(CCC(O)CO)c12 (centres unmarked) [Example 75, 8-Chloro-1-(2,6-dichlorophenyl)-5-(3,4-dihydroxybutyl)-2-(hydroxymethyl)-1,6-naphthyridin-4(1H)-one] | 214 |
| O=c1cc(CO)n(-c2c(Cl)cccc2Cl)c2c(Cl)cnc(C(O)CO)c12 (single isomer, unassigned) [Example 83, 8-Chloro-1-(2,6-dichlorophenyl)-5-(1,2-dihydroxyethyl)-2-(hydroxymethyl)-1,6-naphthyridin-4(1H)-one] | 278 |
| O=c1cc(CO)n(-c2c(Cl)cccc2Cl)c2c(Cl)cnc(OCC3COC3)c12 [Example 10, 8-chloro-1-(2,6-dichlorophenyl)-2-(hydroxymethyl)-5-(oxetan-3-ylmethoxy)-1,6-naphthyridin-4(1H)-one] | 120 |
